# Measurements taken from patent publication US11136291B2, “Antifungal compounds and uses thereof” (Dana-Farber Cancer Institute, Inc., priority 2016, dated 2021).
# “Also recorded” adds a separate entry of the source.
# Tests used:
# [1] = test system: Candida tropicalis DSY472; assay: Broth dilution MIC; settings: ATCC75
# Experimental: Antifungal susceptibility testing was carried out using broth dilution assays which examined effects of two-fold dilutions of compounds on cellular growth. The minimum inhibitory concentration (MIC) was defined as the drug concentration at which the optical density was equal to or decreased more than 50% from that of the drug-free culture.
# C. glabrata = assay: Mouse disseminated fungal burden model; type: in vivo; settings: for fungal burden (CFU/g kidney): Cgpdr1 null strain (SFY93)
smiles,measurement,setting,value
"N#CCC(=O)NNC(=S)Nc1ccc(Cl)c(Cl)c1 [iKIX1, 2-(2-Cyanoacetyl)-N-(3,4-dichlorophenyl)hydrazinecarbothioamide]",MIC,[1],6.25 µM
same,reductions in fungal burdens in the kidney and spleen,"C. glabrata; CgPDR1^L280F strain, iKIX1 100 mg/kg with 100 mg/kg fluconazole, i.p. once daily, 7 days, P<0.0001",~10 fold
same,fungal burden (CFU/g kidney),"C. glabrata; iKIX1 alone, 100 mg/kg/day",significantly reduces fungal burden; also recorded: more sensitive to iKIX1 alone
same,fungal burden (CFU/g kidney),"C. glabrata; low iKIX1 (10 mg/kg/day) added to fluconazole, 10 mg/kg/day",did not confer additional reductions in CFU/g kidney; also recorded: did not further reduce fungal burden
same,tissue fungal burden in the kidney and spleen,"C. glabrata; […], iKIX1 100 mg/kg co-treatment with 100 mg/kg fluconazole",did not result in further reductions
same,fungal tissue burdens in the spleen or kidney,"C. glabrata; […], iKIX1 combination with fluconazole",reduces fungal tissue burdens in the spleen or kidney
same,"reductions in fungal burdens in both organs (kidney, spleen)","C. glabrata; mouse, in vivo, 25 mg/kg",~10 fold
